In patent US4605658A (priority 1983, dated 1986):
Values after ≈ are worked out from the molar mass of the structure shown. Read-outs that look alike come from different tables or passages of the source.

Key:
Parainfluenza-virus-3 = assay: microbe, parasite or virus in culture; assay type: cell-based; conditions: Vero
[1] = Test 3: cytotoxicity, HeLa cells; assay type: cell-based; conditions: human, Table 4, read-out: Minimum cytotoxic concentration (MCC)
Experimental: (§1) A further test was effected to determine the cytotoxicity of the chemical compounds of Table 1. Cell cultures were incubated with varying concentrations of the esters, during a time period equal to the period required for measuring antiviral activity. The compounds (S)-DHPA and (RS)-DHPA were used for comparative purposes. For each compound, the minimum cytotoxic concentration (MCC) was measured, that is the concentration required to cause a microscopically detectable alteration of normal cell morphology, when incubated with the cells in this way.

[2] = Test 3: cytotoxicity, PRK cells; assay type: cell-based; conditions: rabbit, Table 4, read-out: Minimum cytotoxic concentration (MCC)
Experimental: as §1

Reo virus-1 = assay: Test 2: antiviral activity, reo virus-1 in Vero cells; assay type: cell-based; conditions: Reo virus-1, Vero cells; Table 3
[3] = Test 3: cytotoxicity, Vero cells; assay type: cell-based, green monkey; conditions: monkey, Table 4, read-out: Minimum cytotoxic concentration (MCC)
Experimental: as §1

Sindbis virus = assay: microbe, parasite or virus in culture; assay type: cell-based; conditions: Vero
Measles virus = assay: microbe, parasite or virus in culture; assay type: cell-based; conditions: Measles morbillivirus, Vero
Coxsackie virus-B4 = assay: Test 2: antiviral activity, Coxsackie virus-B4 in HeLa cells; assay type: cell-based; conditions: Table 3
[4] = test system: Vesicular stomatitis virus; assay type: cell-based; conditions: ratio of MCC (PRK cells) to MIC50 (vesicular stomatitis virus)
DNA and RNA viruses [5] = conditions: known DHPA and related derivatives; cited from earlier work
Solubility = assay type: physicochemical
DNA and RNA viruses [6] = assay: Antiviral activity against DNA and RNA viruses (general statements); assay type: cell-based
Polio 1 = assay: microbe, parasite or virus in culture; assay type: cell-based; conditions: HeLa, read-out: MIC50
Reovirus 1 = assay: Test 1: inhibition of virus cytopathic effect, reovirus 1 in Vero B cells; assay type: cell-based; conditions: Mammalian orthoreovirus 1; Reovirus 1, Vero B cells; Table 2; read-out: MIC50
Vaccinia = assay: microbe, parasite or virus in culture; assay type: cell-based; conditions: Orthopoxvirus vaccinia, PRK, read-out: MIC50
Parainfluenza = assay: microbe, parasite or virus in culture; assay type: cell-based; conditions: Vero B; read-out: MIC50
Sindbis = assay: Test 1: inhibition of virus cytopathic effect, Sindbis in Vero B cells; assay type: cell-based; conditions: Table 2, read-out: MIC50
Experimental: The antiviral properties of the esters prepared in Example 1 was explored in a variety of cell cultures and with a variety of DNA and RNA viruses such as listed in Table 2. The cells of each cell culture were inoculated with a certain virus in a dose of about 100 CCID50, that is about 100 times the dose needed to infect 50 percent of the cells. One hour after inoculation, the celss were washed with Eagle's nutrient medium and an ester of Example 1 was added in a dose varying from zero to 300 ug/ml and sometimes to more than 400 ug/ml. The compound (S)-DHPA was used in a comparative experiment. […] The cytopathic effect itself was measured in control experiments with virus-infected cell cultures without any added chemical compound and recorded as soon as it reached completion (Method of L. J. Rosenthal and I. L. Schechmaister in "Tissue Culture", p. 510, Academic Press, New York, 1973).
The results are shown in Table 2, wherein the abbreviations have the following meaning: PRK: primary culture of rabbit kidney cells; Vero: continuous line of green monkey kidney cells, HeLa: epithelial line of human cervical carcinoma cells.

Measles = assay: microbe, parasite or virus in culture; assay type: cell-based; conditions: Measles morbillivirus, Vero; read-out: MIC50
Herpes simplex 1 (KOS) = assay: Test 1: inhibition of virus cytopathic effect, herpes simplex 1 (KOS) in PRK cells; assay type: cell-based; conditions: Table 2, read-out: MIC50
Vesicular stomatitis = assay: microbe, parasite or virus in culture; assay type: cell-based; conditions: PRK, read-out: MIC50
living cells = conditions: known DHPA; cited from earlier work

SMILES	EC50 (Parainfluenza-virus-3) [µg/mL]	MCC [1] [µg/mL]	MCC [2] [µg/mL]	EC50 (Reo virus-1) [µg/mL]	MCC [3] [µg/mL]	EC50 (Sindbis virus) [µg/mL]	EC50 (Measles virus) [µg/mL]	EC50 (Coxsackie virus-B4) [µg/mL]	antiviral index [4]	also measured
CC(C)COC(=O)C(O)Cn1cnc2c(N)ncnc21 (racemic) [Compound 7]	20 (≈ 71.6 µM)	> 400	> 400	150 (≈ 537 µM)	> 400	> 400	40 (≈ 143 µM)	> 400	higher than 100 -fold	antiviral index ([4]; listed as 2-methylpropyl): higher than 400 -fold
CCCOC(=O)C(O)Cn1cnc2c(N)ncnc21 (racemic) [Compound 3]	100 (≈ 377 µM)	400	100	200 (≈ 754 µM)	400	> 200	100 (≈ 377 µM)	> 400	–	–
Nc1ncnc2c1ncn2CC(O)CO (racemic) [(RS)--DHPA, 9-(2,3-dihydroxypropyl)adenine, reference compound]	20 (≈ 95.6 µM)	> 400	> 400	100 (≈ 478 µM)	> 400	> 400	20 (≈ 95.6 µM)	> 400	–	antiviral activity (in words) (DNA and RNA viruses [5]): antivirally active
Nc1ncnc2c1ncn2C[C@@H](O)CO [DHPA R-enantiomeric form, 9-(2,3-dihydroxypropyl)adenine]	–	–	–	–	–	–	–	–	–	antiviral activity (in words) (DNA and RNA viruses [5]): rather inactive
CCCCCCCCOC(=O)C(O)Cn1cnc2c(N)ncnc21 (racemic) [Compound 9]	15 (≈ 44.7 µM)	100	100	7 (≈ 20.9 µM)	200	30 (≈ 89.4 µM)	70 (≈ 209 µM)	> 100	–	–
Nc1ncnc2c1ncn2CC(O)C(=O)O (stereo not drawn) [3-(adenin-9-yl)-2-hydroxypropanoic acid]	–	–	–	–	–	–	–	–	–	solubility (in words) (Solubility): poorly soluble in water; antiviral activity (in words) (DNA and RNA viruses [6]): inactivity
CCOC(=O)C(O)Cn1cnc2c(N)ncnc21 (racemic) [Compound 2]	20 (≈ 79.6 µM)	> 400	> 400	40 (≈ 159 µM)	> 400	> 400	20 (≈ 79.6 µM)	> 400	higher than 100 -fold	antiviral index ([4]; listed as racemic ethyl): higher than 400 -fold
COCCOC(=O)C(O)Cn1cnc2c(N)ncnc21 (racemic) [Compound 10]	300 (≈ 1070 µM)	> 400	> 400	70 (≈ 249 µM)	> 400	> 400	400 (≈ 1420 µM)	> 400	–	–
CCCCOC(=O)C(O)Cn1cnc2c(N)ncnc21 (racemic) [Compound 5]	70 (≈ 251 µM)	400	200	150 (≈ 537 µM)	200	150 (≈ 537 µM)	25 (≈ 89.5 µM)	> 400	–	–
COC(=O)[C@@H](O)Cn1cnc2c(N)ncnc21 [CH3 (S), methylester of 3-(adenin-9-yl)-2-hydroxypropanoic acid]	–	–	–	–	–	–	–	–	–	EC50 (Polio 1): > 400 µg/mL; EC50 (Reovirus 1): 300 µg/mL (≈ 1260 µM); EC50 (Vaccinia): 20 µg/mL (≈ 84.3 µM); EC50 (Parainfluenza): 100 µg/mL (≈ 422 µM); EC50 (Sindbis): > 400 µg/mL; EC50 (Measles): 70 µg/mL (≈ 295 µM); EC50 (Herpes simplex 1 (KOS)): > 400 µg/mL; EC50 (Vesicular stomatitis): 7 µg/mL (≈ 29.5 µM)
CCC(C)OC(=O)C(O)Cn1cnc2c(N)ncnc21 (racemic) [Compound 6]	200 (≈ 716 µM)	> 400	> 400	70 (≈ 251 µM)	> 400	300 (≈ 1070 µM)	40 (≈ 143 µM)	> 400	higher than 100 -fold	antiviral index ([4]; listed as 2-butyl): higher than 400 -fold
Nc1ncnc2c1ncn2CC(O)C(=O)OC1CCCCC1 (racemic) [Compound 11]	> 40	100	100	7 (≈ 22.9 µM)	100	> 100	15 (≈ 49.1 µM)	> 100	–	–
CC(C)CCOC(=O)C(O)Cn1cnc2c(N)ncnc21 (racemic) [Compound 8]	200 (≈ 682 µM)	400	400	30 (≈ 102 µM)	400	200 (≈ 682 µM)	12 (≈ 40.9 µM)	> 400	higher than 100 -fold	–
Nc1ncnc2c1ncn2CC(O)CO (stereo not drawn) [DHPA, 9-(2,3-dihydroxypropyl)adenine]	–	–	–	–	–	–	–	–	–	acute toxicity for living cells (in words) (living cells): low acute toxicity for living cells; antiviral activity (in words) (DNA and RNA viruses [5]): broad-spectrum antiviral activity in (S) or (RS) form
CC(C)OC(=O)C(O)Cn1cnc2c(N)ncnc21 (racemic) [Compound 4]	70 (≈ 264 µM)	> 400	> 400	40 (≈ 151 µM)	> 400	> 400	150 (≈ 565 µM)	> 400	higher than 100 -fold	–
Nc1ncnc2c1ncn2C[C@H](O)CO [(S)--DHPA, 9-(2,3-dihydroxypropyl)adenine, reference compound]	20 (≈ 95.6 µM)	> 400	> 400	200 (≈ 956 µM)	> 400	> 400	30 (≈ 143 µM)	> 400	–	EC50 (Polio 1): > 400 µg/mL; EC50 (Reovirus 1): 70 µg/mL (≈ 335 µM); EC50 (Vaccinia): 70 µg/mL (≈ 335 µM); EC50 (Sindbis): > 400 µg/mL; EC50 (Measles): 70 µg/mL (≈ 335 µM); EC50 (Herpes simplex 1 (KOS)): > 400 µg/mL; EC50 (Vesicular stomatitis): 30 µg/mL (≈ 143 µM); antiviral activity (in words) (DNA and RNA viruses [5]): antivirally active
COC(=O)[C@H](O)Cn1cnc2c(N)ncnc21 [CH3 (R), methylester of 3-(adenin-9-yl)-2-hydroxypropanoic acid]	–	–	–	–	–	–	–	–	–	EC50 (Polio 1): > 400 µg/mL; EC50 (Reovirus 1): 70 µg/mL (≈ 295 µM); EC50 (Vaccinia): 15 µg/mL (≈ 63.2 µM); EC50 (Parainfluenza): 200 µg/mL (≈ 843 µM); EC50 (Sindbis): > 400 µg/mL; EC50 (Measles): 15 µg/mL (≈ 63.2 µM); EC50 (Herpes simplex 1 (KOS)): > 400 µg/mL; EC50 (Vesicular stomatitis): 1.5 µg/mL (≈ 6.32 µM)
CCOC(=O)[C@@H](O)Cn1cnc2c(N)ncnc21 [C2 H5 (S)]	–	–	–	–	–	–	–	–	–	EC50 (Polio 1): > 400 µg/mL; EC50 (Reovirus 1): 70 µg/mL (≈ 279 µM); EC50 (Vaccinia): 7 µg/mL (≈ 27.9 µM); EC50 (Parainfluenza): 100 µg/mL (≈ 398 µM); EC50 (Sindbis): > 400 µg/mL; EC50 (Measles): 100 µg/mL (≈ 398 µM); EC50 (Herpes simplex 1 (KOS)): > 400 µg/mL; EC50 (Vesicular stomatitis): 1.5 µg/mL (≈ 5.97 µM)
COC(=O)C(O)Cn1cnc2c(N)ncnc21 (racemic) [Compound 1, methylester of 3-(adenin-9-yl)-2-hydroxypropanoic acid]	20 (≈ 84.3 µM)	> 400	> 400	200 (≈ 843 µM)	> 400	> 400	40 (≈ 169 µM)	> 400	higher than 100 -fold	EC50 (Polio 1): > 400 µg/mL; EC50 (Reovirus 1): 300 µg/mL (≈ 1260 µM); EC50 (Vaccinia): 7 µg/mL (≈ 29.5 µM); EC50 (Parainfluenza): 100 µg/mL (≈ 422 µM); EC50 (Sindbis): > 400 µg/mL; EC50 (Measles): 40 µg/mL (≈ 169 µM); EC50 (Herpes simplex 1 (KOS)): > 400 µg/mL; EC50 (Vesicular stomatitis): 3 µg/mL (≈ 12.6 µM)
